Measurements taken from patent publication US6281209A, “Fungicidal alkoximinomethyldioxazine derivatives” (Bayer Aktiengesellschaft, priority 1997, dated 2001).
Like-named read-outs stand apart in the source and are kept apart here.

How the values were obtained:
Venturia inaequalis = test: Venturia Test (Apple)/Protective; assay type: in vivo; settings: protective, 10 g/ha, evaluated 12 days after inoculation
Procedure: Venturia Test (Apple)/Protective Solvent: 47 parts by weight of acetone Emulsifier: 3 parts by weight of alkylaryl polyglycol ether To produce a suitable preparation of active compound, 1 part by weight of active compound is mixed with the stated amounts of solvent and emulsifier, and the concentrate is diluted with water to the desired concentration. To test for protective activity, young plants are sprayed with the preparation of active compound at the stated application rate. After the spray coating has dried on, the plants are inoculated with an aqueous conidia suspension of the causative organism of apple scab Venturia inaequalis and then remain in an incubation cabin at approximately 20° C. 100% relative atmospheric humidity for 1 day. The plants are then placed in the greenhouse at approximately 21° C. and a relative atmospheric humidity of approximately 90%.

Plasmopara viticola = test: Plasmopara Test (Grapevine)/Protective; assay type: in vivo; settings: protective, 100 g/ha, evaluated 6 days after inoculation
Procedure: Plasmopara Test (Grapevine)/Protective Solvent: 47 parts by weight of acetone Emulsifier: 3 parts by weight of alkylaryl polyglycol ether To produce a suitable preparation of active compound, 1 part by weight of active compound is mixed with the stated amounts of solvent and emulsifier, and the concentrate is diluted with water to the desired concentration. To test for protective activity, the young plants are sprayed with the preparation of active compound at the stated application rate. After the spray coating has dried on, the plants are inoculated with an aqueous spore suspension of Plasmopara viticola and then remain in an incubation cabin at approximately 20° C. and 100% relative atmospheric humidity for 1 day. The plants are subsequently placed in a greenhouse at approximately 21° C. and approximately 90% relative atmospheric humidity for 5 days. The plants are then moistened and placed in an incubation cabin for 1 day.

Pyricularia oryzae = assay type: in vivo; settings: rice, protective, 750 g/ha, contact time of one day, evaluated 4 days after inoculation
Leptosphaeria nodorum = test: Leptosphaeria Nodorum Test (Wheat)/Protective; assay type: in vivo; settings: protective, 25 g/ha, evaluated 10 days after inoculation
Procedure: Leptosphaeria Nodorum Test (Wheat)/Protective Solvent: 10 parts by weight of N-methyl-pyrrolidone Emulsifier: 0.6 parts by weight of alkylaryl polyglycol ether To produce a suitable preparation of active compound, 1 part by weight of active compound is mixed with the stated amounts of solvent and emulsifier, and the concentrate is diluted with water to the desired concentration. To test for protective activity, young plants are sprayed with the preparation of active compound at the stated application rate. After the spray coating has dried on, the plants are sprayed with a spore suspension of Leptosphaeria nodorum. The plants remain in an incubation cabin at 20° C. and 100% relative atmospheric humidity for 48 hours.

[1] = phys. data (logP), Table 1; assay type: physicochemical

Row | Structure (SMILES) | logP ([1]; read-out: logP) | other results
1 | CON=C(C1=NOCCO1)c1ccccc1OC(=O)C=C(C)c1cccc(C(F)(F)F)c1 [Example 1, 2-[(5,6-dihydro-[1,4,2]dioxazin-3-yl)-methoxyiminomethyl]-phenyl 3-(3-trifluoromethylphenyl)-but-2-enoate] |  | efficacy in comparison with the untreated controls (Venturia inaequalis): up to 100%; efficacy in comparison with the untreated control (Plasmopara viticola): up to 100%
2 | CON=C(C1=NOCCO1)c1ccccc1OC(=O)C=C(C)COc1cccc(C(F)(F)F)c1 [Example 3] |  | efficacy in comparison with the untreated control (Pyricularia oryzae): more than 80%
3 | CON=C(C1=NOCCO1)c1ccccc1OC(=O)C=C(C)c1cccc(Br)c1 [Example 4] | 3.72 | efficacy in comparison with the untreated controls (Venturia inaequalis): up to 100%; efficacy in comparison with the untreated control (Plasmopara viticola): up to 100%; efficacy in comparison with the untreated control (Leptosphaeria nodorum): 70%
4 | CON=C(C1=NOCCO1)c1ccccc1OC(=O)C=C(C)c1cccc(OC)c1 [Example 5] | 3.22 | efficacy in comparison with the untreated controls (Venturia inaequalis): up to 100%; efficacy in comparison with the untreated control (Plasmopara viticola): up to 100%
5 | CON=C(C1=NOCCO1)c1ccccc1OC(=O)C=C(C)c1ccccc1 [Example 6] | 3.22 | efficacy in comparison with the untreated controls (Venturia inaequalis): up to 100%; efficacy in comparison with the untreated control (Plasmopara viticola): up to 100%
6 | CON=C(C1=NOCCO1)c1ccccc1OC(=O)C=C(C)c1ccc(C(F)(F)F)cc1 [Example 7] | 3.81 | efficacy in comparison with the untreated controls (Venturia inaequalis): up to 100%; efficacy in comparison with the untreated control (Pyricularia oryzae): more than 80%
7 | CON=C(C1=NOCCO1)c1ccccc1OC(=O)C=C(C)c1ccc(C)cc1 [Example 8] | 3.58 | efficacy in comparison with the untreated controls (Venturia inaequalis): up to 100%; efficacy in comparison with the untreated control (Plasmopara viticola): up to 100%; efficacy in comparison with the untreated control (Pyricularia oryzae): more than 80%
8 | CCc1cccc(C(C)=CC(=O)Oc2ccccc2C(=NOC)C2=NOCCO2)c1 [Example 9] | 3.91 | efficacy in comparison with the untreated controls (Venturia inaequalis): up to 100%; efficacy in comparison with the untreated control (Plasmopara viticola): up to 100%; efficacy in comparison with the untreated control (Pyricularia oryzae): more than 80%
9 | CON=C(C1=NOCCO1)c1ccccc1OC(=O)C=C(C)c1ccc(Br)cc1 [Example 10] | 3.78 | 
10 | CCOc1ccc(C(C)=CC(=O)Oc2ccccc2C(=NOC)C2=NOCCO2)cc1 [Example 12] | 3.57 | 
11 | CON=C(C1=NOCCO1)c1ccccc1OC(=O)C=C(C)c1ccc(C)cc1 [Example 13] |  | logP [1]: 4.06
12 | CON=C(C1=NOCCO1)c1ccccc1OC(=O)C=C(C)c1cc(Cl)ccc1Cl [Example 14] | 3.93 | 
13 | CON=C(C1=NOCCO1)c1ccccc1OC(=O)C=C(C)c1cccc(C)c1 [Example 17] | 3.58 | 
14 | CON=C(C1=NOCCO1)c1ccccc1OC(=O)C=C(C)c1cccc(Cl)c1 [Example 19] | 3.64 | 
15 | CON=C(C1=NOCCO1)c1ccccc1OC(=O)C=C(C)c1ccc(F)cc1 [Example 20] | 3.28 | 
16 | CON=C(C1=NOCCO1)c1ccccc1OC(=O)C=C(C)c1ccc(OC)cc1 [Example 21] | 3.19 | 
17 | CON=C(C1=NOCC(C)O1)c1ccccc1OC(=O)C=C(C)c1ccc(C(F)(F)F)cc1 (stereo not drawn) [Example 22] | 4.02 | 
18 | CON=C(C1=NOCC(C)(C)O1)c1ccccc1OC(=O)C=C(C)c1ccc(C(F)(F)F)cc1 [Example 23] | 4.23 | 
19 | CON=C(C1=NOCCO1)c1ccccc1OC(=O)C=C(C)c1ccccc1OC(C)C [Example 24] | 3.87 | 
20 | CCOc1ccccc1C(C)=CC(=O)Oc1ccccc1C(=NOC)C1=NOCCO1 [Example 25] | 3.63 | 
21 | CCCOc1ccccc1C(C)=CC(=O)Oc1ccccc1C(=NOC)C1=NOCCO1 [Example 26] | 3.98 | 
22 | CON=C(C1=NOCCO1)c1ccccc1OC(=O)C=C(C)c1ccccc1F [Example 29] | 3.25 | 
23 | CON=C(C1=NOCCO1)c1cc(C)ccc1OC(=O)C=C(C)c1cccc(Cl)c1 [Example 32] | 3.9 | 
24 | CON=C(C1=NOCCO1)c1ccccc1OC(=O)C=C(C)c1ccccc1OC [Example 42] | 3.28 | 
25 | CON=C(C1=NOCCO1)c1ccccc1OC(=O)C=C(C)c1ccccc1C(F)(F)F [Example 43] | 3.58 | 
26 | CON=C(C1=NOCCO1)c1ccccc1OC(=O)C=C(C)c1cc(C)ccc1C [Example 44] | 3.85 | 
27 | CON=C(C1=NOCCO1)c1ccccc1OC(=O)C=C(C)c1ccccc1Br [Example 45] | 3.58 | 
28 | CON=C(C1=NOCCO1)c1ccccc1OC(=O)C=C(C)c1ccc(Cl)nc1 [Example 46] | 2.75 | 
29 | CON=C(C1=NOCCO1)c1ccccc1OC(=O)C=C(C)c1ccccc1C [Example 47] | 3.48 | 
